Earlier results, collected in US20180353602A1, “COMBINATION OF HDAC INHIBITOR AND ANTI-PD-L1 ANTIBODY FOR TREATMENT OF CANCER” (Syndax Pharmaceuticals, Inc., priority 2015, published 2018).
Read-outs that look alike come from different tables or passages of the source.

Experiments:
[1] = tested on: squamous or non-squamous non small cell lung cancer (NSCLC); details: ≤1, 10, 15, and 25 mg/kg every 3 weeks for up to 1 year
[2] = in vivo

half-life [2] | Molecule | 24-week progression free survival (PFS) rate ([1]; non-squamous cell NSCLC patients) [%] | 24-week progression free survival (PFS) rate ([1]; squamous cell NSCLC patients) [%]
 | MPDL3280A: human anti-PD-L1 mAb directed against the protein ligand PD-L1, with an engineered Fc domain minimizing ADCC | 46 | 44
about 100 hours | Nc1ccccc1NC(=O)c1ccc(CNC(=O)OCc2cccnc2)cc1 [Entinostat, N-(2-aminophenyl)-4-[N-(pyridine-3-yl)methoxycarbonylamino-methyl]-benzamide] |  | 
